We go through ten compounds from ChEMBL document CHEMBL1151930, “Physicochemical determinants of human renal clearance” (J Med Chem, 2009).

For orientation: clearance means the rate of elimination divided by the concentration. Read a high clearance as a high capacity for elimination.

For data set [1], the species on record is Homo sapiens. The settings on record: in vivo.
A short description of data set [2]: (§1) Total body clearance in human. As to conditions: in vivo.
The nature of the next data set: clinical. The settings on record: human, in vivo.
The species named for data set [3] is Homo sapiens. Described as §1. As to conditions: in vivo.

With `CN1C(C(=O)Nc2ccccn2)=C(O)c2sccc2S1(=O)=O` [TENOXICAM], the CL_renal in the data set filed under Homo sapiens [1] came out at 0 mL/min/kg. The clearance in data set [2] was found to be 0.03 mL/min/kg.

Compound `Cc1ncc2n1-c1ccc(Cl)cc1C(c1ccccc1F)=NC2` [MIDAZOLAM] showed a CL_renal in the data set filed under Homo sapiens [1] of 0 mL/min/kg.

On to `CCCCS(=O)(=O)N[C@@H](Cc1ccc(OCCCCC2CCNCC2)cc1)C(=O)O` [TIROFIBAN], for which the CL renal in “clinical” came to 1.59 mL/min/kg. The same compound yielded a CL in the data set listed under Homo sapiens [3] of 4.3 mL/min/kg.

Compound `COCc1c(C(C)C)nc(C(C)C)c(/C=C/[C@@H](O)C[C@@H](O)CC(=O)O)c1-c1ccc(F)cc1` [CERIVASTATIN] came in with a CL_renal in the data set listed under Homo sapiens [1] of 0 mL/min/kg.

As for `CCc1cccc2cc(C(O)CNC(C)(C)C)oc12` (configuration not stated) [BUFURALOL], in the data set filed under Homo sapiens [1], the CL_renal is 0 mL/min/kg.

In the data set “clinical”, `CCN1CCCC1CNC(=O)c1cc(S(=O)(=O)CC)c(N)cc1OC` (configuration not stated) [AMISULPRIDE] gave a CL renal of 4.4 mL/min/kg. Further, the clearance in data set [2] was found to be 7.8 mL/min/kg.

`CCN1CCN(C(=O)N[C@@H](C(=O)N[C@@H]2C(=O)N3[C@@H]2SC(C)(C)[C@@H]3C(=O)O)c2ccccc2)C(=O)C1=O` [PIPERACILLIN] registered a CL renal in the data set “clinical” of 3.2 mL/min/kg. The compound also registered a clearance in data set [2] of 4 mL/min/kg.

In turn, `CCCCC/C=C\CCC(=O)N[C@H]1[C@H](Oc2c3cc4cc2Oc2ccc(cc2Cl)[C@@H](O[C@@H]2O[C@H](CO)[C@@H](O)[C@H](O)[C@H]2NC(C)=O)[C@@H]2NC(=O)[C@H](NC(=O)[C@@H]4NC(=O)[C@H]4NC(=O)[C@@H](Cc5ccc(c(Cl)c5)O3)NC(=O)[C@H](N)c3ccc(O)c(c3)Oc3cc(O)cc4c3)c3ccc(O)c(c3)-c3c(O[C@H]4O[C@H](CO)[C@@H](O)[C@H](O)[C@@H]4O)cc(O)cc3[C@@H](C(=O)O)NC2=O)O[C@H](CO)[C@@H](O)[C@@H]1O` [TEICOPLANIN A2-1] yielded a CL renal in “clinical” of 0.17 mL/min/kg. In addition, in data set [2], the clearance came to 0.17 mL/min/kg.

In “clinical”, `N[C@@H](CC(=O)N1CCn2c(nnc2C(F)(F)F)C1)Cc1cc(F)c(F)cc1F` [SITAGLIPTIN] had a CL renal of 4.74 mL/min/kg. The compound also returned a clearance in data set [2] of 6 mL/min/kg.

Regarding `O=[N+]([O-])O[C@@H]1CO[C@H]2[C@@H]1OC[C@@H]2O` [ISOSORBIDE MONONITRATE], the CL renal in “clinical” was found to be 0.1 mL/min/kg. For the same compound, the clearance in data set [2] was determined as 2 mL/min/kg.
